We go through three compounds from US6005007A, “Retinoids, methods for their production and use” (priority 1997, dated 1999).

One experiment has as its system RAR receptors. As to the kind of experiment: Co-transfection assay, RAR subfamily (summary in words). Format: cell-based. The settings on record: CV-1 cells. As for the experimental part: Utilizing the "cis-trans" or "co-transfection" assay described by Evans et al., Science, 240:889-95 (May 13, 1988), the disclosure of which is herein incorporated by reference, the retinoid compounds of the present invention were tested and found to have strong, specific activity as either selective RXR agonists, or as pan-agonist activators of both RAR and RXR receptors. This assay is described in further detail in U.S. Pat. Nos. 4,981,784 and 5,071,773, the disclosures of which are incorporated herein by reference.
In the co-transfection assay, a cloned cDNA for an IR (e.g., human RARα, RARβ, RXRγ) under the control of a constitutive promoter (e.g., the SV 40 promoter) is introduced by transfection (a procedure to induce cells to take up foreign genes) into a background cell substantially devoid of endogenous IRs. This introduced gene directs the recipient cells to make the IR protein of interest. A second gene is also introduced (co-transfected) into the same cells in conjunction with the IR gene. […]
The co-transfection assay can detect small molecule agonists or antagonists of target IRs. […] This activity can be conveniently measured, e.g., by increasing luciferase production, which reflects compound-dependent, IR-mediated increases in reporter transcription. […]

In a further experiment the target is T1, RARγ (Homo sapiens, UniProt P13631).
T1 sequence (P13631 1-454): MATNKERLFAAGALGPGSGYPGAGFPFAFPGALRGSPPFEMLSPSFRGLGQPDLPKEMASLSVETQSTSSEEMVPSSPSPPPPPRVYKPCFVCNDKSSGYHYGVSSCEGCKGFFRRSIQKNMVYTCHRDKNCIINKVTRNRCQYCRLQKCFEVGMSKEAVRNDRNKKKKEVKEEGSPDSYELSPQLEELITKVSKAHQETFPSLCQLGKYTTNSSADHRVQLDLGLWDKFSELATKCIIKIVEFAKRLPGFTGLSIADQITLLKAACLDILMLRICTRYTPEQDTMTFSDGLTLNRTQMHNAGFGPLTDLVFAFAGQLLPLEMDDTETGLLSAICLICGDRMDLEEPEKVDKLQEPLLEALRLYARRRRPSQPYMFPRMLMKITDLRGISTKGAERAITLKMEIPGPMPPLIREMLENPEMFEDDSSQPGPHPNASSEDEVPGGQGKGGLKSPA
The experiment can be described thus: Co-transfection assay, RARγ agonist activity. It is filed as cell-based. Set-up: expressed in transfected cells; host or cells: CV-1 (African green monkey kidney fibroblasts). Conditions: CV-1 cells, luciferase reporter, read-out: RARγ Pot. (Reporter assays use an easily measured gene product as a stand-in for the process of interest.)

The next experiment addresses T2, RXRβ (Mus musculus, UniProt P28704).
T2 sequence (P28704 1-520): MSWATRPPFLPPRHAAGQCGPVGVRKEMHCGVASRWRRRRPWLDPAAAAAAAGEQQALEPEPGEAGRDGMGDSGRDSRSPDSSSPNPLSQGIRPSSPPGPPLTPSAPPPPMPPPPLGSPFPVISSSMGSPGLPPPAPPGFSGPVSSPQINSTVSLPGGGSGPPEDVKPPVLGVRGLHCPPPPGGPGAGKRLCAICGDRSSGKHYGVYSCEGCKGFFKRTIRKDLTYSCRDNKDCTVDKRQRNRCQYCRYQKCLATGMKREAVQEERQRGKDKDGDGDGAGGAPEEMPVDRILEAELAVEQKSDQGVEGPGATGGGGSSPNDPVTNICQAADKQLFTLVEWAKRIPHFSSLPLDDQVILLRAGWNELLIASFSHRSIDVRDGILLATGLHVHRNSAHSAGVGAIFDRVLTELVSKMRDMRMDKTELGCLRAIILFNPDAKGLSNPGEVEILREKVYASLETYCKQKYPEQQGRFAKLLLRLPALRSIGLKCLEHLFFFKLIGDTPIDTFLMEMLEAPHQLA
As to the kind of experiment: Co-transfection assay, RXRβ agonist activity. Conditions: CV-1 cells, luciferase reporter, read-out: RXRβ Pot. It is filed as cell-based.

A further experiment deals with ME 180. As to the kind of experiment: Incorporation of 3H-thymidine, ME 180. It is filed as cell-based. The settings on record: Homo sapiens, ME-180; 96 hours incubation, then 6 hours 3H-thymidine; read-out: TdR IC50 ME 180.
In another experiment the test system is RPMI 8226. The experiment can be described thus: Incorporation of 3H-thymidine, RPMI 8226. Format: cell-based. The settings on record: Homo sapiens, 96 hours incubation, then 6 hours 3H-thymidine, read-out: TdR IC50 RPMI 8226.
For another experiment, the system named is AML-193. The experiment can be described thus: Incorporation of 3H-thymidine, AML-193. Conditions: Homo sapiens, read-out: TdR IC50 AML-193 (nM).

For `CC(/C=C/CC1(c2cc(C(C)(C)C)cc3c2CCC3(C)C)CC1)=C\C(=O)O` [Compound 107, (2E, 4E)-6-[1-(6-t-butyl-1,1-dimethyl-indan-4-yl)-cyclopropyl]-3-methyl hexadienoic acid], in the experiment on RAR receptors, the “activity for the RAR receptors” value is reported as “no activity at all”. For the same compound, the EC50 at RARγ was > 10000 nM; at RXRβ, 22 nM.
`CC(/C=C/CC1(c2ccc3c(c2)C(C)(C)CCC3(C)C)CCCC1)=C\C(=O)O` [Compound 108, (2E, 4E)-6-[(5,5,8,8-Tetramethyl-5,6,7,8-tetrahydronaphtha-len-2-yl)cyclopentane-1-yl]-3-methyl hexadienoic acid]: in the experiment with RAR receptors, the “activity for the RAR receptors” value was “no activity at all”. The EC50 on RARγ is > 10000 nM.
With `CC(/C=C/CC1(c2ccc3c(c2)C(C)(C)CCC3(C)C)CC1)=C\C(=O)O` [Compound 101, (2E, 4E)-6-[1-(5,5,8,8-Tetramethyl-5,6,7,8-tetrahydronaphtha-len-2-yl)cyclopropanyl]-3-methyl hexadienoic acid], the IC50 in the experiment with ME 180 was 0.9 nM; in the experiment on RPMI 8226, < 0.1 nM; in the experiment on AML-193, < 0.1 nM. Moreover, the values for the EC50 at RARγ and on RXRβ were 24 nM and 6 nM, respectively.

Broadly, the IC50 is the concentration at which inhibition is half-maximal.
